Reference: ChEMBL document CHEMBL5331054, “Antibacterial quaternary ammonium agents: Chemical diversity and biological mechanism” (Eur J Med Chem, 2022)

Columns and labels:
Pseudomonas aeruginosa [1] = experiment: Antibacterial activity against Pseudomonas aeruginosa assessed as bacterial growth inhibition incubated for 72 hrs by microdilution method; assay type: functional; details: Pseudomonas aeruginosa, 72 h, read-out: MIC
Escherichia coli [2] = experiment: Antibacterial activity against Escherichia coli assessed as bacterial growth inhibition incubated for 72 hrs by microdilution method; assay type: functional; details: Escherichia coli, 72 h, read-out: MIC
Staphylococcus aureus [3] = experiment: Antibiofilm activity against Staphylococcus aureus ATCC 33591 assessed as reduction in biofilm activity; assay type: functional
Enterococcus faecalis [4] = experiment: Antibacterial activity against Enterococcus faecalis assessed as bacterial growth inhibition incubated for 72 hrs by microdilution method; assay type: functional
Staphylococcus aureus [5] = experiment: Antibacterial activity against Staphylococcus aureus assessed as bacterial growth inhibition incubated for 72 hrs by microdilution assay; assay type: functional, organism-based; details: Staphylococcus aureus; time 72 hrs
Staphylococcus aureus [6] = experiment: Antibacterial activity against methicillin-resistant Staphylococcus aureus assessed as bacterial growth inhibition; assay type: functional
Staphylococcus aureus [7] = experiment: Antimicrobial activity against community acquired methicillin-resistant Staphylococcus aureus assessed as reduction in bacterial cell growth; assay type: functional
Enterococcus faecalis [8] = experiment: Antimicrobial activity against Enterococcus faecalis; assay type: functional
Escherichia coli [9] = experiment: Antimicrobial activity against Escherichia coli at 50 uM; assay type: functional
Escherichia coli [10] = experiment: Antibacterial activity against Escherichia coli assessed as reduction in bacterial cell growth; assay type: functional
Klebsiella pneumoniae = experiment: Antibacterial activity against Klebsiella pneumoniae ATCC 700603 assessed as inhibition of bacterial cell growth
Staphylococcus aureus [11] = experiment: Antibacterial activity against methicillin-resistant Staphylococcus aureus assessed as bacterial cell growth inhibition incubated for 18 hrs by microbroth dilution method; assay type: functional
Pseudomonas aeruginosa [12] = experiment: Antibacterial activity against Pseudomonas aeruginosa ATCC 10145 by broth microdilution method; assay type: functional
Escherichia coli [13] = experiment: Antibacterial activity against Escherichia coli ATCC 11229 assessed as reduction in bacterial cell growth incubated for 24 hrs by microtiter plate reader assay; assay type: functional
Bacillus subtilis = experiment: Antibacterial activity against Bacillus subtilis ATCC 6633 assessed as reduction in bacterial cell growth incubated for 24 hrs by microtiter plate reader assay; assay type: functional
Salmonella enterica = experiment: Antibacterial activity against Salmonella enterica ATCC 14028 assessed as reduction in bacterial cell growth incubated for 24 hrs by microtiter plate reader assay; assay type: functional
Pseudomonas aeruginosa [14] = experiment: Antibacterial activity against Pseudomonas aeruginosa ATCC 27853 assessed as inhibition of bacterial growth incubated for 16 to 18 hrs by broth microdilution method; assay type: functional; details: time 16-18 hrs
Escherichia coli [15] = experiment: Antibacterial activity against Escherichia coli ATCC 25922 assessed as inhibition of bacterial growth incubated for 16 to 18 hrs by broth microdilution method; assay type: functional; details: time 16-18 hrs
Enterococcus faecalis [16] = experiment: Antibacterial activity against Enterococcus faecalis ATCC 29212 assessed as inhibition of bacterial growth incubated for 16 to 18 hrs by broth microdilution method; assay type: functional; details: time 16-18 hrs
Staphylococcus aureus [17] = experiment: Antibacterial activity against methicillin-resistant Staphylococcus aureus assessed as bacterial growth inhibition measured after 16 to 18 hrs by broth microdilution method; assay type: functional; details: time 16-18 hrs
Staphylococcus aureus [18] = experiment: Antibacterial activity against Staphylococcus aureus; assay type: functional
Staphylococcus aureus [19] = experiment: Antibacterial activity against Staphylococcus aureus ATCC 700699 assessed as reduction in bacterial cell growth incubated for 24 hrs by microtiter plate reader assay; assay type: functional
Staphylococcus aureus [20] = experiment: Antibacterial activity against Staphylococcus aureus ATCC 29213 assessed as inhibition of bacterial growth incubated for 16 hrs by CLSI based broth microdilution method; assay type: functional
Staphylococcus aureus [21] = experiment: Antibacterial activity against methicillin resistant Staphylococcus aureus assessed as reduction in bacterial cell growth incubated for 18 to 24 hrs by microbroth dilution assay; assay type: functional; details: time 18-24 hrs
Pseudomonas aeruginosa [22] = experiment: Antibacterial activity against Pseudomonas aeruginosa ATCC 27853 assessed as inhibition of bacterial growth incubated for 16 hrs by CLSI based broth microdilution method; assay type: functional
Enterococcus faecalis [23] = experiment: Antibacterial activity against Enterococcus faecalis ATCC 29212 assessed as inhibition of bacterial growth incubated for 16 hrs by CLSI based broth microdilution method; assay type: functional
Enterococcus faecalis [24] = experiment: Antibacterial activity against vancomycin-resistant Enterococcus faecalis assessed as inhibition of bacterial growth incubated for 16 hrs by CLSI based broth microdilution method; assay type: functional
Staphylococcus aureus [25] = experiment: Antibacterial activity against methicillin-sensitive Staphylococcus aureus assessed as reduction in microbial growth; assay type: functional
Pseudomonas aeruginosa [26] = experiment: Antibacterial activity against Pseudomonas aeruginosa assessed as reduction in bacterial cell growth; assay type: functional
Staphylococcus aureus [27] = experiment: Antibacterial activity against methicillin-resistant Staphylococcus aureus […] assessed as reduction in bacterial cell growth; assay type: functional

In the case of CCCCCCCCCCCCC[N+](C)(C)CCCN(C)CCC[N+](C)(C)CCCCCCCCCCCC.[Br-].[Br-], the MIC (Pseudomonas aeruginosa [1]) is reported as 4 µM, the MIC (Escherichia coli [2]) is reported as < 0.25 µM and the MBEC (Staphylococcus aureus [3]) is reported as 50 µM. For the same compound, the MIC (Enterococcus faecalis [4]) was < 0.25 µM and the MIC (Staphylococcus aureus [5]) was 1 µM.

CCCCCCCCCCC[n+]1ccc(CCCc2cc[n+](CCCCCCCCCCC)cc2)cc1 was tested, and the MIC (Staphylococcus aureus [6]) was 0.25 µM, the MIC (Staphylococcus aureus [7]) was 0.25 µM and the MIC (Staphylococcus aureus [5]) was 0.25 µM. For the same compound, the MIC (Enterococcus faecalis [8]) was 0.5 µM and the MIC (Escherichia coli [9]) was 0.5 µM.

CCCCCCCCC[n+]1cccc(Oc2ccc(-c3ccc(Oc4ccc[n+](CCCCCCCCC)c4)cc3)cc2)c1.[I-].[I-] was tested, and the MIC (Staphylococcus aureus [6]) was < 0.25 µg/mL, the MIC (Escherichia coli [10]) was 0.5 µg/mL and the MIC (Klebsiella pneumoniae) was 8 µg/mL.

With CCCCCCCC[n+]1ccc(SCCCCCCSc2cc[n+](CCCCCCCC)cc2)cc1.[Br-].[Br-] the MIC (Staphylococcus aureus [11]) was 8 µg/mL and the MIC (Pseudomonas aeruginosa [12]) was 8 µg/mL.

For CCCCCCCCCCCCCCCCCCNC(=O)CC[C@@H](C)[C@H]1CC[C@H]2[C@@H]3[C@H](OC(=O)C[n+]4ccccc4)C[C@@H]4C[C@H](OC(=O)C[n+]5ccccc5)CC[C@]4(C)[C@H]3C[C@H](O)[C@]12C.[Cl-].[Cl-], the MIC (Escherichia coli [13]) was 0.8 µg/mL, the MIC (Bacillus subtilis) was 0.8 µg/mL and the MIC (Salmonella enterica) was 1.6 µg/mL.

For CCCCCCCCCCCC[N+]12CC[N+](CCCCCCCCCCCC)(CC1)CC2, the MIC (Pseudomonas aeruginosa [14]) was 8 µM, the MIC (Escherichia coli [15]) was 2 µM and the MIC (Enterococcus faecalis [16]) was 4 µM. It also gave an MIC (Staphylococcus aureus [17]) of 0.5 µM and an MIC (Staphylococcus aureus [18]) of 0.25 µM.

CCCCCCCCCCCCCCCCCC[N+](C)(C)Cc1cnc(C)c(O)c1C.Cl.[Cl-] showed an MIC (Staphylococcus aureus [19]) of 0.5 µg/mL.

CC(C)(C)n1cc[n+](CCCCCCCCCCCC[n+]2ccn(C(C)(C)C)c2)c1.[Br-].[Br-] showed an MIC (Escherichia coli [13]) of 0.5 µg/mL, an MIC (Staphylococcus aureus [20]) of 0.25 µg/mL and an MIC (Staphylococcus aureus [21]) of 0.5 µg/mL. The MIC (Pseudomonas aeruginosa [22]) was 4 µg/mL, the MIC (Enterococcus faecalis [23]) was 0.5 µg/mL and the MIC (Enterococcus faecalis [24]) was 0.5 µg/mL.

CCCCCCCCCCC[n+]1ccc(CCc2cc[n+](CCCCCCCCCCC)cc2)cc1 was tested, and the MIC (Staphylococcus aureus [25]) was 1 µM and the MIC (Pseudomonas aeruginosa [26]) was 4 µM.

For CCCCCCCCCCCC[n+]1cccc(C[N+](C)(C)CCCCCCCCCCCC)c1, the MIC (Staphylococcus aureus [27]) was 1 µM.
